PMC6268585, “Synthesis, Molecular Properties Prediction, and Anti-staphylococcal Activity of N-Acylhydrazones and New 1,3,4-Oxadiazole Derivatives” (Molecules, 2012)
Values after ≈ are worked out from the molar mass of the structure shown. Where two headings read alike, the source gives them in different places.

Experiments:
S. aureus 007 (MARSA) = assay: MIC/MBC by broth microdilution, clinical strain 007; type: cell-based; settings: Staphylococcus aureus; for MIC: read-out: Minimum Inhibitory Concentration (MIC); for MBC: read-out: Minimum Bactericidal Concentration (MBC)
Experimental: (§1) The effluxing strains were kindly provided by Professor Simon Gibbons (University of London, London, UK), and the MARSA strains were obtained from the culture collection of the Laboratory of Microorganism Genetics (Department of Molecular Biology, Federal University of Paraíba). All strains were maintained on blood agar base slants (BAB, Difco Laboratories Ltd., Brazil), and prior to use, the cells were grown overnight at 37 °C in brain heart infusion broth (BHI, Difco Laboratories Ltd., Detroit, MI, USA).
(§2) The stock solutions of the compounds were prepared in DMSO which at its highest final concentration after dilution in the broth (4%) caused no inhibition of bacterial growth. The minimum inhibitory concentrations (MICs) of the compounds were determined in BHI by microdilution assay using a suspension of ca. 10^5 cfu/mL and a drug concentration range of 256 to 0.5 μg/mL (two-fold serial dilutions). The MIC is defined as the lowest concentration at which no growth is observed. The dye resazurin was used for better visualization of the bacterial growth. […] The minimum bactericidal concentration (MBC) is defined as the lowest drug concentration that gives no growth on the agar.

[1] = test system: S. aureus RN-4220 (plasmid pUL5054, MsrA macrolide efflux protein); assay: MIC/MBC by broth microdilution, strain RN-4220; type: cell-based; settings: Staphylococcus aureus; for MBC: read-out: Minimum Bactericidal Concentration (MBC); for MIC: read-out: Minimum Inhibitory Concentration (MIC)
Experimental: as §1, §2

S. aureus 05H (MARSA) = assay: MIC/MBC by broth microdilution, clinical strain 05H; type: cell-based, Staphylococcus aureus; settings: for MIC / MBC: Staphylococcus aureus, 5 h; for MBC: read-out: Minimum Bactericidal Concentration (MBC)
Experimental: as §1, §2

[2] = test system: S. aureus SA-1199B (overexpresses the NorA efflux protein); assay: MIC/MBC by broth microdilution, strain SA-1199B; type: cell-based; settings: Staphylococcus aureus; for MBC: read-out: Minimum Bactericidal Concentration (MBC); for MIC: read-out: Minimum Inhibitory Concentration (MIC)
Experimental: as §1, §2

[3] = test system: S. aureus IS-58 (TetK tetracycline efflux protein); assay: MIC/MBC by broth microdilution, strain IS-58; type: cell-based; settings: Staphylococcus aureus; for MBC: read-out: Minimum Bactericidal Concentration (MBC); for MIC: read-out: Minimum Inhibitory Concentration (MIC)
Experimental: as §1, §2

[4] = strain 007, first number of cell MIC-MBC
[5] = strain 007, second number of cell MIC-MBC
[6] = read-out: Minimum Inhibitory Concentration (MIC)

Compound	MIC (S. aureus 007 (MARSA); [4])	MBC (S. aureus 007 (MARSA); [5])	melting point	MBC [1]	MIC (S. aureus 05H (MARSA))	MBC (S. aureus 05H (MARSA))	MIC (S. aureus 05H (MARSA); [6])	MBC [2]	MBC [3]	fold more potent than the standard chloramphenicol (S. aureus 05H (MARSA); strain MARSA (05H))	MIC [2]	MIC [3]	MBC (S. aureus 007 (MARSA))	MIC (S. aureus 007 (MARSA))	MIC [1]
CC(=O)N1N=C(c2ccc(Cl)cc2)OC1c1ccc([N+](=O)[O-])o1 (stereo not drawn) [Compound 5d]	16 µg/mL (≈ 47.7 µM)	16 µg/mL (≈ 47.7 µM)	188 to 190 °C	32 µg/mL (≈ 95.3 µM)	8 µg/mL (≈ 23.8 µM)	8 µg/mL (≈ 23.8 µM)	8 µg/mL (≈ 23.8 µM)	32 µg/mL (≈ 95.3 µM)	–	–	–	–	–	–	–
O=C(NN=Cc1ccc([N+](=O)[O-])o1)c1ccc(Cl)cc1 [Compound 4d, 4-Chloro-N′-((5-nitrofuran-2-yl)methylene)benzohydrazide]	8 µg/mL (≈ 27.2 µM)	8 µg/mL (≈ 27.2 µM)	–	–	4 µg/mL (≈ 13.6 µM)	4 µg/mL (≈ 13.6 µM)	4 µg/mL (≈ 13.6 µM)	16 µg/mL (≈ 54.5 µM)	16 µg/mL (≈ 54.5 µM)	16 fold	16 µg/mL (≈ 54.5 µM)	–	–	–	–
O=C(N[C@H](CO)[C@H](O)c1ccc([N+](=O)[O-])cc1)C(Cl)Cl [Chloramphenicol, chloramphenicol, reference compound]	–	–	–	128 µg/mL (≈ 396 µM)	64 µg/mL (≈ 198 µM)	128 µg/mL (≈ 396 µM)	64 µg/mL (≈ 198 µM)	64 µg/mL (≈ 198 µM)	128 µg/mL (≈ 396 µM)	–	64 µg/mL (≈ 198 µM)	64 µg/mL (≈ 198 µM)	128 µg/mL (≈ 396 µM)	64 µg/mL (≈ 198 µM)	64 µg/mL (≈ 198 µM)
COc1ccc(C(=O)NN=Cc2ccc([N+](=O)[O-])o2)cc1 [Compound 4e, 4-Methoxy-N′-((5-nitrofuran-2-yl)methylene)benzohydrazide]	8 µg/mL (≈ 27.7 µM)	8 µg/mL (≈ 27.7 µM)	–	16 µg/mL (≈ 55.3 µM)	–	4 µg/mL (≈ 13.8 µM)	4 µg/mL (≈ 13.8 µM)	16 µg/mL (≈ 55.3 µM)	–	–	16 µg/mL (≈ 55.3 µM)	–	–	–	16 µg/mL (≈ 55.3 µM)
O=C(NN=Cc1ccc([N+](=O)[O-])o1)c1ccc([N+](=O)[O-])cc1 [Compound 4c, 4-Nitro-N′-((5-nitrofuran-2-yl)methylene)benzohydrazide]	8 µg/mL (≈ 26.3 µM)	16 µg/mL (≈ 52.6 µM)	–	32 µg/mL (≈ 105 µM)	–	8 µg/mL (≈ 26.3 µM)	8 µg/mL (≈ 26.3 µM)	32 µg/mL (≈ 105 µM)	–	–	32 µg/mL (≈ 105 µM)	16 µg/mL (≈ 52.6 µM)	–	–	16 µg/mL (≈ 52.6 µM)
CC(=O)N1N=C(c2ccc(C)cc2)OC1c1ccc([N+](=O)[O-])o1 (stereo not drawn) [Compound 5b, 1-(2-(5-Nitrofuran-2-yl)-5-(methylphenyl)-1,3,4-oxadiazol-3(2H)-yl)ethanone]	–	–	160 to 162 °C	–	–	–	–	–	–	–	–	–	–	–	–
Cc1ccc(C(=O)NN=Cc2ccc([N+](=O)[O-])o2)cc1 [Compound 4b, 4-Methyl-N′-((5-nitrofuran-2-yl)methylene)benzohydrazide]	8 µg/mL (≈ 29.3 µM)	8 µg/mL (≈ 29.3 µM)	–	–	–	4 µg/mL (≈ 14.6 µM)	4 µg/mL (≈ 14.6 µM)	32 µg/mL (≈ 117 µM)	–	–	16 µg/mL (≈ 58.6 µM)	–	–	–	–
CC(=O)N1N=C(c2ccccc2)OC1c1ccc([N+](=O)[O-])o1 (stereo not drawn) [Compound 5a, 1-(2-(5-Nitrofuran-2-yl)-5-phenyl-1,3,4-oxadiazol-3(2H)-yl)ethanone]	32 µg/mL (≈ 106 µM)	32 µg/mL (≈ 106 µM)	178 to 180 °C	–	–	16 µg/mL (≈ 53.1 µM)	16 µg/mL (≈ 53.1 µM)	–	16 µg/mL (≈ 53.1 µM)	–	–	16 µg/mL (≈ 53.1 µM)	–	–	16 µg/mL (≈ 53.1 µM)
O=C(NN=Cc1ccc([N+](=O)[O-])o1)c1ccccc1 [Compound 4a, N′-((5-nitrofuran-2-yl)methylene)benzohydrazide]	8 µg/mL (≈ 30.9 µM)	8 µg/mL (≈ 30.9 µM)	–	–	–	8 µg/mL (≈ 30.9 µM)	8 µg/mL (≈ 30.9 µM)	16 µg/mL (≈ 61.7 µM)	–	–	16 µg/mL (≈ 61.7 µM)	–	–	–	–
COc1ccc(C2=NN(C(C)=O)C(c3ccc([N+](=O)[O-])o3)O2)cc1 (stereo not drawn) [Compound 5e, 1-(2-(5-Nitrofuran-2-yl)-5-(methoxyphenyl)-1,3,4-oxadiazol-3(2H)-yl)ethanone]	–	–	181 to 183 °C	–	–	–	–	–	–	–	–	–	–	–	–
CC(=O)N1N=C(c2ccc([N+](=O)[O-])cc2)OC1c1ccc([N+](=O)[O-])o1 (stereo not drawn) [Compound 5c, 1-(2-(5-Nitrofuran-2-yl)-5-(4-nitrophenyl)-1,3,4-oxadiazol-3(2H)-yl)ethanone]	16 µg/mL (≈ 46.2 µM)	16 µg/mL (≈ 46.2 µM)	188 to 190 °C	32 µg/mL (≈ 92.4 µM)	–	8 µg/mL (≈ 23.1 µM)	8 µg/mL (≈ 23.1 µM)	32 µg/mL (≈ 92.4 µM)	–	–	32 µg/mL (≈ 92.4 µM)	–	–	–	–
